From ChEMBL document CHEMBL1140295, “Synthesis and monoamine transporter binding properties of 2,3-diaryltropanes” (J Med Chem, 2005) come the findings set out here.

In assay [1] the target is Sodium-dependent noradrenaline transporter (Homo sapiens, UniProt P23975). The assay can be described thus: Displacement of [3H]nisoxetine from NET. (Loss of bound radioactivity is the signal in a displacement assay; it reports binding, not function.)
The target of assay [2] is Sodium-dependent dopamine transporter (Homo sapiens, UniProt Q01959). Briefly: Displacement of [3H]WIN-35428 from DAT.
Sodium-dependent dopamine transporter, sequence (Q01959 whole entry): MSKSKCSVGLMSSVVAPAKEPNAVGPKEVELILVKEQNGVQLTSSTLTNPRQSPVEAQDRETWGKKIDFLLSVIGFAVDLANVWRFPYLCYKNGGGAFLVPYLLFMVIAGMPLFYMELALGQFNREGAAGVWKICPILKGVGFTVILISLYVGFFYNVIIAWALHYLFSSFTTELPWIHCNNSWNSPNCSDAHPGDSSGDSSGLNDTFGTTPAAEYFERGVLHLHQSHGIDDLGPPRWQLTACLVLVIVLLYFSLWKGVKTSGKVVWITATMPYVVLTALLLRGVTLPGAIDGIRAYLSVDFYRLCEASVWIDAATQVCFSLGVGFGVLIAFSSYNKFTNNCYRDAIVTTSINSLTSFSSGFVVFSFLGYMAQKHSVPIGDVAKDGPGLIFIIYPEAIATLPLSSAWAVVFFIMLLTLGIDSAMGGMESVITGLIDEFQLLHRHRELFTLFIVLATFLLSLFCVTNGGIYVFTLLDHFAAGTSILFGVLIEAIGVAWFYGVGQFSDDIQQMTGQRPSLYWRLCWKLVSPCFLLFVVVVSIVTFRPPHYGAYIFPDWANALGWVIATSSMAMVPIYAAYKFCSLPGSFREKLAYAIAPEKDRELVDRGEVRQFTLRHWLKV
Assay [3] addresses Sodium-dependent serotonin transporter (Homo sapiens, UniProt P31645). Briefly: Displacement of [3H]paroxetine from 5HTT.
For assay [4], the species on record is Homo sapiens. The assay can be described thus: Selectivity for DAT over NET.
Assay [5] is filed under the species Homo sapiens. Briefly: Selectivity for DAT over 5HTT.

Sodium-dependent serotonin transporter, sequence (P31645 whole entry): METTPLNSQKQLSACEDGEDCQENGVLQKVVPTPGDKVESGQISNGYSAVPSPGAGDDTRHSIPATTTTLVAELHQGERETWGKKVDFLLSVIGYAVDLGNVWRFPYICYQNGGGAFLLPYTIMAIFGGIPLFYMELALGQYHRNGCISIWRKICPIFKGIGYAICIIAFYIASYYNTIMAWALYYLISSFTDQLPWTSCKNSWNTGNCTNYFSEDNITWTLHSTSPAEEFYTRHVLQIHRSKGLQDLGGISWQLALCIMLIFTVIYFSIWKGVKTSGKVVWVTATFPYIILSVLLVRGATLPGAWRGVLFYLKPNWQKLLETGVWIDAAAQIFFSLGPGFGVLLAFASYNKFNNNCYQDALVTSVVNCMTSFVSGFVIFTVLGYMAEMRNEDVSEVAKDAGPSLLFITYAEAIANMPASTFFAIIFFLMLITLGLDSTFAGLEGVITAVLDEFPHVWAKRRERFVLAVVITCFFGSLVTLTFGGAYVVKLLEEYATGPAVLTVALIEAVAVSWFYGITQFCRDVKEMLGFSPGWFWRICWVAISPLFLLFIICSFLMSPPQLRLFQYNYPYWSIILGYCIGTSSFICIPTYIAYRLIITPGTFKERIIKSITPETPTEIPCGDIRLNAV
Sodium-dependent noradrenaline transporter, sequence (P23975 whole entry): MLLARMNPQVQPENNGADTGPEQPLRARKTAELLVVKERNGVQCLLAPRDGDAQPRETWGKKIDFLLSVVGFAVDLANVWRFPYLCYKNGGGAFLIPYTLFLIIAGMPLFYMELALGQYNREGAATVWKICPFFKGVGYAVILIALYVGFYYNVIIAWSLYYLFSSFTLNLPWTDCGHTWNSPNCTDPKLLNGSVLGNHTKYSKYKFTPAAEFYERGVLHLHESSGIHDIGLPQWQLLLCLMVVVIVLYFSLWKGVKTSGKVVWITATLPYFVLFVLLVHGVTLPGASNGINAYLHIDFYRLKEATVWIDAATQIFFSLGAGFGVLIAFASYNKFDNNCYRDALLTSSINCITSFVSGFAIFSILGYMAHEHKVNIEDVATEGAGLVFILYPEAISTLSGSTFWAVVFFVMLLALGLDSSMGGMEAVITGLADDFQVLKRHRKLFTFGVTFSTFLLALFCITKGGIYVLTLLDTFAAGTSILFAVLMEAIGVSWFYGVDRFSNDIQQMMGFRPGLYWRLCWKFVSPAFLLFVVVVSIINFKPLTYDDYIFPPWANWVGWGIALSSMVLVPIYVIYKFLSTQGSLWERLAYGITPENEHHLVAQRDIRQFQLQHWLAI

In general, IC50 refers to the point on the concentration scale where inhibition reaches its midpoint. A higher IC50 goes with weaker potency in that assay. The term Ki denotes a measure of affinity in units of concentration, obtained from inhibition or displacement. Read a high Ki as a looser hold on the target. Turning to `CN1C2CCC1[C@@H](c1ccccc1)[C@@H](c1ccccc1)C2` (some centres not stated), the values for the IC50 in assay [1], in assay [2] and in assay [3] were 920 nM, 12.6 nM and 21000 nM, respectively. Besides, the Ki in assay [1] worked out at 550 nM; in assay [3], 1900 nM.
`Cc1ccc([C@H]2CC3CCC([C@H]2c2ccccc2)N3C)cc1` (some centres not stated): the IC50 in assay [1] was 480 nM; in assay [2], 1.96 nM; in assay [3], 1100 nM. Also, the Ki was found to be 280 nM in assay [1] and 100 nM in assay [3].
In the same order, the values of `CN1C2CCC1[C@H](c1ccccc1)[C@H](c1ccccc1)C2` (some centres not stated) are 1040 nM, 690 nM, 41000 nM, 626 nM and 3700 nM.
Consider `COC(=O)[C@@H]1C2CC[C@H](C[C@@H]1c1ccc(C)cc1)N2C`, for which the IC50 in assay [1] was 3850 nM; in assay [2] it was 23.4 nM. Also, the Ki in assay [1] worked out at 1930 nM.
As for `COc1ccc([C@@H]2C3CCC(C[C@H]2c2ccc(C)cc2)N3C)cc1OC` (some centres not stated), the IC50 is 78000 nM in assay [1], 980 nM in assay [2] and 16200 nM in assay [3]. The Ki amounted to 46000 nM in assay [1] and 1470 nM in assay [3].
As for `COc1ccc([C@@H]2C3CCC(C[C@@H]2c2ccc(C)cc2)N3C)cc1OC` (some centres not stated), the IC50 in assay [1] was 10000 nM; in assay [2], 23.3 nM; in assay [3], 13700 nM. Besides, the Ki in assay [1] was determined as 6000 nM; in assay [3] it was 1250 nM.
The compound `COc1ccc([C@H]2C3CCC(C[C@H]2c2ccc(C)cc2)N3C)cc1` (some centres not stated) displayed a concentration for half-maximal inhibition (IC50) in assay [2] of 238 nM. In assay [3], this compound came in with an IC50 of 1530 nM and an inhibition constant (Ki) of 376 nM.
On to `Cc1ccc([C@@H]2CC3CCC([C@@H]2c2ccccc2)N3C)cc1` (some centres not stated), for which the figures for the IC50 in assay [1], in assay [2] and in assay [3] were 4850 nM, 430 nM and 16000 nM, respectively. Besides, the results for the Ki in assay [1] and in assay [3] were 2920 nM and 1500 nM, respectively.
Regarding `Cc1ccc([C@H]2CC3CCC([C@H]2c2ccc(C)cc2)N3C)cc1` (some centres not stated), the concentration for half-maximal inhibition (IC50) in assay [1] is 780 nM; in assay [2], 1.35 nM; in assay [3], 1010 nM. In addition, the inhibitory constant (Ki) in assay [1] was found to be 390 nM; in assay [3] it was 250 nM. For the same compound, the Selectivity ratio in the assay listed under Homo sapiens [4] is 289; in the assay listed under Homo sapiens [5], 185.
In assay [1], `Cc1ccc([C@@H]2CC3CCC([C@@H]2c2ccc(C)cc2)N3C)cc1` (some centres not stated) came in with an IC50 of 13000 nM and a Ki of 7800 nM. In assay [3], this compound returned an IC50 of 10000 nM and a Ki of 910 nM.
`Cc1ccc([C@H]2CC3CCC([C@H]2c2ccc(F)cc2)N3C)cc1` (some centres not stated): the IC50 in assay [1] stood at 132 nM; in assay [2], 0.9 nM; in assay [3] it was 100 nM. Also, the Ki in assay [1] was 61 nM; in assay [3], 25 nM.
Take `Cc1ccc([C@@H]2C3CCC(C[C@@H]2c2ccccc2)N3C)cc1` (some centres not stated): the results for the IC50 in assay [1], in assay [2] and in assay [3] were 6100 nM, 22.4 nM and 45000 nM, respectively. In addition, the figures for the Ki in assay [1] and in assay [3] were 3700 nM and 4100 nM, respectively.
Regarding `Cc1ccc([C@H]2C3CCC(C[C@H]2c2ccccc2)N3C)cc1` (some centres not stated), the results for the 50% inhibitory concentration (IC50) in assay [1], in assay [2] and in assay [3] were 4700 nM, 540 nM and 11000 nM, respectively. The results for the Ki in assay [1] and in assay [3] were 2800 nM and 1000 nM, respectively.
The like results for `COc1ccc([C@@H]2C3CCC(C[C@@H]2c2ccc(C)cc2)N3C)cc1` (some centres not stated) were, in that order, 282 nM, 1.23 nM, 1670 nM, 191 nM and 410 nM.
